Consider 63 compounds from patent US11230524B2, “Myocyte enhancer factor 2 (MEF2) modulators” (STANDARD LLC, priority 2017, dated 2022).

Chain of MEF2D/HDAC4 protein-protein interactions (Q14814 whole entry, species assumed, the tested form may be a part): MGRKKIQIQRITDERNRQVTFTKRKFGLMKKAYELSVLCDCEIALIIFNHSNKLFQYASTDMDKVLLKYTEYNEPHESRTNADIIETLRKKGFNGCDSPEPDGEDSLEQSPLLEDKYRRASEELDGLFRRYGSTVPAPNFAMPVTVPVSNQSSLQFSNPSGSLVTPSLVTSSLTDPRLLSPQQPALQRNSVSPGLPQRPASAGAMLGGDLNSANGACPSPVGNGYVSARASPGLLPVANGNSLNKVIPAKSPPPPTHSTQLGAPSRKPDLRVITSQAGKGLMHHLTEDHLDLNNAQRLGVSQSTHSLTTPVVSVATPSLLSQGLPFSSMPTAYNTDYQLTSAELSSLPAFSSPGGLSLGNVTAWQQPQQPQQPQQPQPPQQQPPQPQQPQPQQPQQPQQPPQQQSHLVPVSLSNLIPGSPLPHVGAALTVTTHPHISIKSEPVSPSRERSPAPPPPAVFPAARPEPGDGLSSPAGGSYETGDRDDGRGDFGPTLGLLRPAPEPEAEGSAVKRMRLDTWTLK

For the test, the target named is MEF2D/HDAC4 protein-protein interactions (Homo sapiens (Human), UniProt Q14814). In words: Mammalian two-hybrid assay, inhibition of MEF2D and HDAC4 protein interactions (luciferase reporter in HeLa cells). Format: cell-based. The note with it: HeLa cells co-transfected with GAL4-MEF2D, HDAC4-VP16 and Gal4Luc; overnight treatment; luciferase normalized to Renilla. From the text:
Detection of MEF2D and HDAC4 interactions. In this mammalian two-hybrid assay, HDAC4 and MEF2D proteins were used. […] Human epithelial carcinoma cells (HeLa) were co-transfected with the two DNA constructs (GAL4-MEF2D and HDAC4-VP16) and a reporter plasmid (Gal4Luc). […] MEF2D and HDAC4 protein interactions were detected as a result of the GAL4-MEF2D and HDAC4-VP16 protein complex binding a DNA promoter on the reporter plasmid (Gal4Luc) and driving cellular expression of a luciferase gene. The measured luciferase protein signal was proportional to the amount of MEF2D and HDAC4 protein interactions occurring with the cell.
The HDAC4 fragment lacked the catalytic domain so that the deacetylase activity was excluded from the assay.
Detection of inhibition of MEF2D and HDAC4 interactions. Next, the assay was used to test whether the compounds could disrupt the interactions between MEF2D and HDAC4. After co-expressing the GAL4-MEF2D and HDAC4-VP16 DNA constructs and reporter plasmid, the HeLa cells were treated with a test compound (10 μM) overnight. Cells transfected with the positive control GAL4VP16 fusion construct and reporter plasmid were also treated with the test compound (10 μM) overnight. As another control, DMSO was added (but kept below 0.2% V/V) to cells transfected with the positive GAL4VP16 fusion construct or the GAL4-MEF2D and HDAC4-VP16 DNA constructs. A luciferase assay was performed as described above according to the manufacturer's protocol (Promega). The luciferase response was normalized against the Renilla Luciferase as an internal control.
The relative activity and IC50 calculations. […] The relative activity, I, was the ratio of former to later, i.e. X/Y, expressed in percentile. […] The IC50 was the concentration of the compounds when X/Y equals 50.
On the technique in general: Reporter assays use an easily measured gene product as a stand-in for the process of interest.
`CC(C)Oc1cccc(NCc2cccc(/C=C/C(=O)Nc3ccccc3N)c2)c1` [ST5] registered an IC50 of 191 µM.
For the compound `O=C(/C=C/c1cccc(CNc2nc(C(F)(F)F)cs2)c1)NO` [ST75], inhibition was half-maximal at 0.41 µM (IC50).
For `CC(C)OC(=O)N[C@@H](CCCCC(=O)Nc1ccccc1N)C(=O)Nc1cccc(Br)c1` [ST97], the IC50 worked out at 0.45 µM.
`O=C(/C=C/c1cccc(CNc2nc(C(F)(F)F)co2)c1)NO` [ST79] showed an IC50 of 0.28 µM.
With `Nc1ccccc1NC(=O)/C=C/c1cccc(CNc2nnc(C(F)(F)F)s2)c1` [ST61], the 50% inhibitory concentration (IC50) was found to be 8.03 µM.
The same measure for `Cc1nnc(NCc2cccc(/C=C/C(=O)NO)c2)s1` [ST73]: 1.15 µM; for `CCOC(=O)NC(CCCCC(=O)Nc1ccccc1N)C(=O)Nc1cncc(OC)c1` (stereo not drawn) [ST124]: 1.53 µM; for `CCCC(=O)NC(CCCCC(=O)NO)C(=O)Nc1cccc(Br)c1` (stereo not drawn) [ST110]: 0.42 µM.
`CCOC(=O)NC(CCCCC(=O)Nc1ccccc1N)C(=O)Nc1cncc(OCC)c1` (stereo not drawn) [ST127] showed an IC50 of 1.84 µM.
On to `O=C(/C=C/c1cccc(CNc2cccc(F)c2)c1)NO` [ST18], for which the midpoint of inhibition, the IC50, lay at 1.03 µM.
The same measure for `O=C(/C=C/c1cccc(CNc2ccc(F)cc2F)c1)NO` [ST25]: 0.95 µM; for `Nc1ccccc1NC(=O)/C=C/c1cccc(CNc2cccc(N3CCCC3)c2)c1` [ST10]: 2.51 µM; for `CC(C)CC(=O)N[C@@H](CCCCC(=O)Nc1ccccc1N)C(=O)Nc1cccc(Br)c1` [ST101]: 0.35 µM.
Consider `CCOC(=O)NC(CCCCC(=O)Nc1ccccc1N)C(=O)Nc1ccccc1` (stereo not drawn) [ST91], for which half-maximal inhibition (IC50) required 1.46 µM.
Then `O=C(/C=C/c1cccc(CNc2cccnc2)c1)NO` [ST72], with 1.55 µM.
Turning to `Nc1ccccc1NC(=O)/C=C/c1cccc(CNc2nc(C(F)(F)F)cs2)c1` [ST62], the IC50 was found to be 3.04 µM.
The compound `Nc1ccccc1NC(=O)CCCCC(NC(=O)c1ccccn1)C(=O)Nc1cccnc1` (stereo not drawn) [ST122] registered an IC50 of 1.62 µM.
`O=C(/C=C/c1cccc(CNc2cccc(OCC(F)F)c2)c1)NO` [ST45] had an IC50 of 0.56 µM.
The same measure for `COc1cccc(NCc2cccc(/C=C/C(=O)Nc3ccccc3N)c2)c1` [ST3]: 4.87 µM; for `O=C(/C=C/c1cccc(CNc2cccc(N3CCCCC3)c2)c1)NO` [ST39]: 0.31 µM; for `CN(C)c1ccc(/C=C2C=C(/C=C/C(=O)NO)CCC/2)cc1` [ST30]: above 20 µM.
`COc1ccc(-c2csc(NCc3cccc(/C=C/C(=O)Nc4ccccc4N)c3)n2)cc1` [ST51] returned an IC50 above 20 µM.
In turn, `Nc1ccccc1NC(=O)CCCC[C@H](NC(=O)OCC1CC1)C(=O)Nc1cccc(Br)c1` [ST99] gave an IC50 of 0.59 µM.
The same measure for `CCOC(=O)N[C@@H](CCCCC(=O)Nc1ccccc1N)C(=O)Nc1cccc(OCC)c1` [ST100, (S)-ethyl (7-((2-aminophenyl)amino)-1-((3-ethoxyphenyl)amino)-1,7-dioxoheptan-2-yl)carbamate]: 0.21 µM.
Consider `CCN(CC)c1cccc(NCc2cccc(/C=C/C(=O)Nc3ccccc3N)c2)c1` [ST9], for which the 50% inhibitory concentration (IC50) was 3.53 µM.
The same measure for `Nc1ccccc1NC(=O)/C=C/c1cccc(NC(=O)OCc2cccnc2)c1` [ST68]: 2.1 µM; for `COc1ccc(NCC2C=C(/C=C/C(=O)NO)CCC2)cc1` (stereo not drawn) [ST36]: 1.88 µM.
`Nc1ccccc1NC(=O)CCCC[C@H](NC(=O)CC1CC1)C(=O)Nc1cccc(Br)c1` [ST98] showed an IC50 of 0.32 µM.
For `Nc1ccccc1NC(=O)/C=C/c1cccc(Nc2nccc(-c3cccnc3)n2)c1` [ST48], the half-maximal inhibitory concentration (IC50) is above 20 µM.
The same measure for `CCOC(=O)NC(CCCCC(=O)Nc1ccccc1N)C(=O)Nc1cccnc1` (stereo not drawn) [ST123]: 2 µM; for `CCc1cccc(NCc2cccc(/C=C/C(=O)NO)c2)c1` [ST22]: 0.54 µM; for `COc1cccc(NCc2cc(F)cc(/C=C/C(=O)NO)c2)c1` [ST44]: 0.38 µM.
Then `CCOC(=O)NC(CCCCC(=O)Nc1ccccc1N)C(=O)Nc1ccncc1` (stereo not drawn) [ST125], with 2.44 µM.
The same measure for `CCN1CCN(C(CCCCC(=O)Nc2ccccc2N)C(=O)Nc2cccc(Br)c2)C1=O` (stereo not drawn) [ST105]: 1.48 µM.
For `CN(C)c1cccc(NCc2cccc(/C=C/C(=O)NO)c2)c1` [ST33], the IC50 turned out to be 0.37 µM.
`O=C(/C=C/c1cccc(CNc2ccc(F)cc2)c1)NO` [ST17] registered an IC50 of 0.99 µM.
Take `Cc1nnc(NCc2cccc(/C=C/C(=O)NO)c2)o1` [ST76]: the IC50 was above 10 µM.
On to `Nc1ccccc1NC(=O)/C=C/c1cccc(CNc2nccc(-c3cccnc3)n2)c1` [ST47], for which the IC50 was determined as 1.49 µM.
Compound `Cc1coc(NCc2cccc(/C=C/C(=O)Nc3ccccc3N)c2)n1` [ST67] gave a 50% inhibitory concentration (IC50) of 3.06 µM.
For `Nc1ccccc1NC(=O)/C=C/c1cccc(CNc2cccc(Br)c2)c1` [ST2], it took 5.94 µM to reach half-maximal inhibition (IC50).
`Nc1ccccc1NC(=O)/C=C/c1cccc(C(C(=O)Nc2ccccc2)C(=O)Nc2ccccc2)c1` [ST58]: half-maximal inhibition (IC50) required 3.01 µM.
Then `O=C(/C=C/c1cccc(CNc2nnc(C(F)(F)F)s2)c1)NO` [ST74], with 0.32 µM; and `Cc1nnc(NCc2cccc(/C=C/C(=O)Nc3ccccc3N)c2)o1` [ST65], with 5.37 µM.
In turn, `CCC(=O)CNC(CCCCC(=O)NO)C(=O)Nc1cccc(Br)c1` (stereo not drawn) [ST114] gave an IC50 of 1.25 µM.
On to `O=C(/C=C/c1cccc(C(=O)Nc2nc(-c3ccncc3)cs2)c1)NO` [ST69], for which it took 0.98 µM to reach half-maximal inhibition (IC50).
Compound `Nc1ccccc1NC(=O)CCCCC(N)C(=O)Nc1cccc(Br)c1` (stereo not drawn) [ST87] came in with an IC50 of 3.06 µM.
For the compound `COC(=O)N[C@H](CCCCC(=O)Nc1ccccc1N)C(=O)Nc1cccc(Br)c1` [ST96], the IC50 worked out at 1.37 µM.
On to `O=C(/C=C/c1cccc(CNc2cccc(N3CCOCC3)c2)c1)NO` [ST32], for which the IC50 stood at 0.25 µM.
`O=C(CCCCC(NC(=O)c1cccnc1)C(=O)Nc1cccc(Br)c1)NO` (stereo not drawn) [ST109] came in with an IC50 of 0.68 µM.
As for `CCOC(=O)N[C@H](CCCCC(=O)Nc1ccccc1N)C(=O)Nc1cccc(Br)c1` [ST95], the IC50 amounted to 1.04 µM.
In turn, `Cc1coc(NCc2cccc(/C=C/C(=O)NO)c2)n1` [ST77] gave an IC50 of 0.64 µM.
For the compound `O=C(/C=C/c1cccc(CNc2ccccc2)c1)NO` [ST15], it took 0.92 µM to reach half-maximal inhibition (IC50).
`Nc1ccccc1NC(=O)CCCCC(NC(=O)c1ccccc1)C(=O)Nc1cccnc1` (stereo not drawn) [ST120] had an IC50 of 1.56 µM.
On to `COc1cccc(NCc2ccc(F)c(/C=C/C(=O)Nc3ccccc3N)c2)c1` [ST12], for which half-maximal inhibition (IC50) was put at 3.36 µM.
The same measure for `Nc1ccccc1NC(=O)/C=C/c1cccc(CNc2cccc(N3CCCCC3)c2)c1` [ST6]: 2.46 µM; for `O=C(/C=C/c1cccc(CNc2cccc(N3CCCC3)c2)c1)NO` [ST37]: 0.59 µM.
Then `CSc1cccc(NCc2cccc(/C=C/C(=O)NO)c2)c1` [ST20], with 0.32 µM; and `CCOc1cccc(NCC2C=C(/C=C/C(=O)NO)CCC2)c1` (stereo not drawn) [ST35], with 4.72 µM.
Consider `O=C(/C=C/c1cccc(CNc2cccc(OC3CCCC3)c2)c1)NO` [ST29], for which the IC50 was found to be 1.18 µM.
As to `O=C(/C=C/c1cccc(CNc2cccc(OC3COC3)c2)c1)NO` [ST31], the IC50 was found to be 0.56 µM.
`O=C(/C=C/c1cccc(CNc2ccc(F)c(F)c2)c1)NO` [ST24] had a half-maximal inhibitory concentration (IC50) of 1.02 µM.
`CCOC(=O)NC(CCCCC(=O)Nc1ccccc1N)C(=O)Nc1cccc(SC)c1` (stereo not drawn) [ST82] displayed an IC50 of 0.5 µM.
Compound `CCOC(=O)NC(CCCCC(=O)Nc1ccccc1N)C(=O)Nc1ccc2ncccc2c1` (stereo not drawn) [ST118] registered a concentration for half-maximal inhibition (IC50) of 0.49 µM.

One may read the IC50 as the concentration that inhibits the measured activity by half. Read a low IC50 as greater potency.
